Test results taken from the NIST ThermoML archive (doi:10.1021/acs.jced.7b00713).
± gives the expanded uncertainty stated by the source.

Experiment: molar heat capacity at constant pressure
Conditions: Liquid, Flow calorimetry

F/C=C/C(F)(F)F [trans-1,3,3,3-tetrafluoropropene]
Conditions | molar heat capacity at constant pressure [J/K/mol]
313.46 K, 3000 kPa | 160.8 ± 4.8
313.47 K, 3980 kPa | 158.97 ± 4.8
313.47 K, 4490 kPa | 157.95 ± 4.8
313.48 K, 3490 kPa | 159.89 ± 4.8
313.48 K, 5010 kPa | 157.04 ± 4.7
313.49 K, 1040 kPa | 165.36 ± 5
313.49 K, 5490 kPa | 156.58 ± 4.7
313.49 K, 6010 kPa | 155.67 ± 4.7
313.49 K, 6990 kPa | 153.61 ± 4.6
313.49 K, 7470 kPa | 152.93 ± 4.6
313.5 K, 1510 kPa | 164.22 ± 4.9
313.5 K, 7990 kPa | 152.36 ± 4.6
313.51 K, 2010 kPa | 163.08 ± 4.9
313.51 K, 6510 kPa | 154.53 ± 4.7
313.51 K, 8500 kPa | 151.79 ± 4.6
313.52 K, 2480 kPa | 162.4 ± 4.9
313.52 K, 8990 kPa | 150.99 ± 4.6
313.52 K, 9510 kPa | 150.65 ± 4.6
313.53 K, 10000 kPa | 149.96 ± 4.6
323.28 K, 3520 kPa | 163.76 ± 4.9
323.28 K, 4030 kPa | 162.4 ± 4.9
323.29 K, 4530 kPa | 161.25 ± 4.8
323.29 K, 4990 kPa | 160.46 ± 4.8
323.29 K, 7490 kPa | 155.89 ± 4.7
323.29 K, 8010 kPa | 154.75 ± 4.7
323.29 K, 8520 kPa | 154.18 ± 4.7
323.29 K, 9040 kPa | 153.04 ± 4.6
323.31 K, 5490 kPa | 159.66 ± 4.8
323.31 K, 7030 kPa | 156.92 ± 4.7
323.32 K, 3010 kPa | 164.68 ± 4.9
323.32 K, 6010 kPa | 158.63 ± 4.8
323.33 K, 1510 kPa | 168.9 ± 5.1
323.33 K, 2010 kPa | 167.41 ± 5
323.33 K, 2500 kPa | 165.93 ± 5
323.33 K, 6480 kPa | 157.83 ± 4.8
323.34 K, 9490 kPa | 152.7 ± 4.6
323.36 K, 10010 kPa | 151.79 ± 4.6
333.08 K, 1550 kPa | 178.13 ± 5.4
333.08 K, 2060 kPa | 175.62 ± 5.2
333.11 K, 2510 kPa | 173.69 ± 5.2
333.11 K, 3500 kPa | 170.26 ± 5.1
333.13 K, 3030 kPa | 172.09 ± 5.1
333.13 K, 7490 kPa | 160.8 ± 4.8
333.14 K, 8040 kPa | 159.32 ± 4.8
333.15 K, 4000 kPa | 169.01 ± 5.1
333.15 K, 6520 kPa | 162.4 ± 4.9
333.15 K, 7020 kPa | 161.37 ± 4.9
333.16 K, 6010 kPa | 163.54 ± 4.9
333.16 K, 8500 kPa | 158.75 ± 4.8
333.18 K, 4980 kPa | 166.27 ± 5
333.18 K, 5500 kPa | 164.56 ± 4.9
333.19 K, 4500 kPa | 167.76 ± 5
333.19 K, 9020 kPa | 158.06 ± 4.8
333.2 K, 10080 kPa | 155.89 ± 4.7
333.21 K, 9510 kPa | 157.38 ± 4.7
343.53 K, 2040 kPa | 185.77 ± 5.6
343.57 K, 2550 kPa | 183.04 ± 5.5
343.57 K, 3000 kPa | 180.3 ± 5.5
343.59 K, 3540 kPa | 178.36 ± 5.4
343.6 K, 4040 kPa | 175.74 ± 5.2
343.61 K, 4540 kPa | 173.23 ± 5.2
343.62 K, 5040 kPa | 171.75 ± 5.1
343.62 K, 5510 kPa | 169.69 ± 5.1
343.62 K, 10070 kPa | 157.61 ± 4.8
343.63 K, 9080 kPa | 160 ± 4.8
343.63 K, 9530 kPa | 159.09 ± 4.8
343.64 K, 6050 kPa | 168.44 ± 5
343.64 K, 6590 kPa | 166.61 ± 5
343.64 K, 7070 kPa | 165.25 ± 5
343.64 K, 7510 kPa | 163.88 ± 4.9
343.64 K, 8090 kPa | 162.17 ± 4.9
343.65 K, 8480 kPa | 160.91 ± 4.8
353.55 K, 2550 kPa | 196.49 ± 5.9
353.55 K, 3510 kPa | 188.4 ± 5.7
353.58 K, 3040 kPa | 192.05 ± 5.8
353.61 K, 5010 kPa | 178.36 ± 5.4
353.61 K, 5510 kPa | 176.54 ± 5.4
353.62 K, 6040 kPa | 175.17 ± 5.2
353.64 K, 4520 kPa | 181.44 ± 5.5
353.64 K, 6530 kPa | 173.69 ± 5.2
353.64 K, 7050 kPa | 172.54 ± 5.1
353.65 K, 7500 kPa | 171.63 ± 5.1
353.65 K, 7970 kPa | 170.72 ± 5.1
353.66 K, 4050 kPa | 184.52 ± 5.6
353.67 K, 8480 kPa | 170.04 ± 5.1
353.68 K, 9030 kPa | 168.67 ± 5
353.68 K, 9510 kPa | 168.21 ± 5
353.68 K, 10090 kPa | 166.96 ± 5
363.56 K, 3500 kPa | 207.67 ± 6.3
363.56 K, 4000 kPa | 200.03 ± 6
363.57 K, 3000 kPa | 219.53 ± 6.6
363.61 K, 4510 kPa | 194.78 ± 5.8
363.61 K, 5520 kPa | 186.46 ± 5.6
363.62 K, 4990 kPa | 190.34 ± 5.7
363.63 K, 6020 kPa | 182.81 ± 5.5
363.64 K, 6520 kPa | 180.19 ± 5.4
363.64 K, 6990 kPa | 177.33 ± 5.4
363.64 K, 7530 kPa | 175.05 ± 5.2
363.64 K, 8010 kPa | 173.12 ± 5.2
363.65 K, 8530 kPa | 171.4 ± 5.1
363.65 K, 9050 kPa | 170.15 ± 5.1
363.66 K, 9450 kPa | 169.01 ± 5.1
363.66 K, 9990 kPa | 167.76 ± 5
373.35 K, 3540 kPa | 259.44 ± 8
373.42 K, 4030 kPa | 231.73 ± 7.1
373.42 K, 4510 kPa | 216.91 ± 6.6
373.43 K, 5010 kPa | 206.42 ± 6.3
373.44 K, 5540 kPa | 199.23 ± 6
373.47 K, 6020 kPa | 194.1 ± 5.8
373.48 K, 7010 kPa | 185.66 ± 5.6
373.49 K, 6530 kPa | 189.54 ± 5.7
373.49 K, 7500 kPa | 183.04 ± 5.5
373.5 K, 8030 kPa | 179.62 ± 5.4
373.51 K, 8510 kPa | 177.45 ± 5.4
373.56 K, 9050 kPa | 175.4 ± 5.2
373.57 K, 9430 kPa | 174.48 ± 5.2
373.59 K, 9990 kPa | 172.66 ± 5.1
391.65 K, 4520 kPa | 525.5 ± 21
392.2 K, 5020 kPa | 310.99 ± 13
392.38 K, 5470 kPa | 257.73 ± 8.2
392.46 K, 6010 kPa | 226.37 ± 7
392.52 K, 6540 kPa | 210.06 ± 6.4
392.57 K, 7060 kPa | 200.6 ± 6
392.6 K, 7560 kPa | 194.55 ± 5.8
392.63 K, 8030 kPa | 191.02 ± 5.7
392.67 K, 8510 kPa | 189.88 ± 5.7
392.72 K, 9070 kPa | 188.05 ± 5.7
392.75 K, 10000 kPa | 187.03 ± 5.6
392.77 K, 9520 kPa | 188.51 ± 5.7
392.77 K, 10010 kPa | 187.48 ± 5.6
